Here are results for one compound from PMC7160333, “Physiological Role of Glutamate Dehydrogenase in Cancer Cells” (Frontiers in Oncology, 2020).

The test relates to HeLa cells. As to conditions: for Duplication time: 2-D culture, n = 3; for Maximal cellular densities: reached at day 4.

Where two headings read alike, the source gives them in different places.

Method: All cancer and non-cancer cell lines used were purchased from ATCC and cultured in DMEM (Sigma-Aldrich) supplemented with 10% fetal bovine serum (Biowest, Nuaillé, France) and 10,000 U penicillin/streptomycin (Sigma-Aldrich) and placed under a humidified atmosphere of 5% CO2/95% air at 37°C.
Cell growth was followed by counting cellular density every 24 h during 7 to 8 days. […] The duplication time was determined by using the following equation: n=1/[3.32(logNF-logNI)]/(tF-tI) , where NF represents the number of cultured cells at the end of the exponential growth phase; NI represents the number of cells at the beginning of the growth curve; tF is the final time at which cells were harvested, and tI is the initial culture time. The specific growth rate μ was calculated from the slope of a semilogarithmic plot of cell densities in the exponential growth phase vs. time ([88]).

Compound `Cl.N` [NH4Cl, Ammonium chloride] displayed a Duplication time (+5 mM NH4Cl) of 25.5 ± 2 h and a Duplication time (+10 mM NH4Cl) of 24 ± 2 h. The Maximal cellular densities is listed as 153 ± 13 ×10^3 (+5 mM NH4Cl) and 163 ± 9 ×10^3 (+10 mM NH4Cl). For the same compound, the “Rescue of growth after glutamine removal from the culture medium” value (NH4Cl 1–10 mM, data not shown) is listed as “did not rescue their growth”.
